In patent publication US7498447B2, “Therapeutic compounds” (Allergan, Inc., priority 2006, dated 2009):

Legend:
EP2 [1] = target: T1, EP2 (Homo sapiens, UniProt P43116); assay: EP2 flipr; format: cell-based
From the text: (§1) U.S. patent application Ser. No. 11/553,143, filed on Oct. 26, 2006, incorporated by reference herein, describes the methods used to obtain the in vitro data in the tables below.

EP2 [2] = target: T1, EP2; assay: EP2 cAMP; format: cell-based
From the text: as §1

EP2 [3] = target: T1, EP2; assay: EP2 binding (Ki)
From the text: as §1

EP4 [4] = target: T2, EP4 (Homo sapiens, UniProt P35408); assay: EP4 flipr; format: cell-based
T2 sequence (P35408 whole entry): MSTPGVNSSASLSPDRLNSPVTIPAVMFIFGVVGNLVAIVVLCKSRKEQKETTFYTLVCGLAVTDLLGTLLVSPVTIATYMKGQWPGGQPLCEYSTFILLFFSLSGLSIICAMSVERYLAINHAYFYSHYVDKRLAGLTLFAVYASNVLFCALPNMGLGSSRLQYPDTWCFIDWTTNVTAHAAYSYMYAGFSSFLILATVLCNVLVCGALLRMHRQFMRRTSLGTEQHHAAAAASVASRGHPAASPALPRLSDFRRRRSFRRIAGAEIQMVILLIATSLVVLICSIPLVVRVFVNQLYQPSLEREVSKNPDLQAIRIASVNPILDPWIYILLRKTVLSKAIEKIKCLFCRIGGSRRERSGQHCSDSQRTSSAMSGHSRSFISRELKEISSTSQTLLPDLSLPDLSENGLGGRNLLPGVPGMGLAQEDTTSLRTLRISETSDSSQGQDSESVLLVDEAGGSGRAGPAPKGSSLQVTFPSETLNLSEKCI
From the text: as §1

EP4 [5] = target: T2, EP4; assay: EP4 binding (KI)
From the text: as §1

T1 sequence (P43116 whole entry): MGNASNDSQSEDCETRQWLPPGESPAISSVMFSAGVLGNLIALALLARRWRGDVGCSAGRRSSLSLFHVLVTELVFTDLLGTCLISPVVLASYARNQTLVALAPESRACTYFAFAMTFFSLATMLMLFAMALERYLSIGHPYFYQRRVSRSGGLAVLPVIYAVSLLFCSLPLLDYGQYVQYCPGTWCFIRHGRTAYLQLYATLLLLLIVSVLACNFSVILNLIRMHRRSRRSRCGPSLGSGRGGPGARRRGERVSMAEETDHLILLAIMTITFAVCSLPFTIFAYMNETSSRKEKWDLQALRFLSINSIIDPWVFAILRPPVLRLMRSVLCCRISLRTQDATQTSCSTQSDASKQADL

| EC50 (EP2 [1]) [µM] | EC50 (EP2 [2]) [µM] | Ki (EP2 [3]) [µM] | EC50 (EP4 [4]) [µM] | Ki (EP4 [5]) [µM] | SMILES |
| --- | --- | --- | --- | --- | --- |
| 3.81 | 0.017 | 0.085 | > 10 | 1.02 | CCCCCC(=O)c1ccc(N2CC[C@@H](Cl)[C@@H]2COCc2ccc(C(=O)O)s2)cc1 [5-((((2S,3R)-3-chloro-1-(4-hexanoylphenyl)pyrrolidin-2-yl)methoxy)methyl)thiophene-2-carboxylic acid] |
| 2.18 | 0.339 | 1.84 | – | > 10 | CCCCCC(O)c1ccc(N2CC[C@@H](Cl)[C@@H]2COCc2ccc(C(=O)O)s2)cc1 (stereo partly drawn) [5-((((2S,3R)-3-chloro-1-(4-(1-hydroxyhexyl)phenyl)pyrrolidin-2-yl)methoxy)methyl)thiophene-2-carboxylic acid] |
| 8.42 | 0.327 | 3.01 | > 10 | 1.49 | CCCC/C=C/c1ccc(N2CC[C@@H](Cl)[C@@H]2COCc2ccc(C(=O)O)s2)cc1 [5-((((2S,3R)-3-chloro-1-(4-((E)-hex-1-enyl)phenyl)pyrrolidin-2-yl)methoxy)methyl)thiophene-2-carboxylic acid] |
